{
  "source": "patent US11628172B2",
  "about": "“Methods of treating chronic lymphocytic leukemia using 2-(2,6-dioxopiperidin-3-yl)-4-((2-fluoro-4-((3-morpholinoazetidin-1-yl)methyl)benzyl)amino)isoindoline-1,3-dione” (Celgene Corporation, priority 2019, dated 2023)",
  "key": {"[1]": {"tested_on": "primary CLL cells from patient-derived blood", "experiment": "Cell proliferation and viability assay for B-cell CLL patient cells (ex vivo co-culture with CD154-expressing fibroblasts)", "format": "cell-based, human", "parameters": "AUC: unit not given here", "settings": "for Emax / IC50: Homo sapiens, CLL cell; for Emax: read-out: Emax (percentage of tumor cells remaining); for AUC: viable cell counts", "description": "The following are examples of cell-based assays that can be used to determine the anti-proliferative activity and apoptosis effect of compounds described herein using exemplary CLL patient cells. The effect of Compound 1 on the viability and apoptosis of CLL B cells was assessed utilizing an ex vivo model.\nCLL is characterized by accumulation of clonal CD5^+CD19^+ lymphocytes resistant to apoptosis. The effect of Compound 1 on the viability and apoptosis of CLL B cells was assessed utilizing an ex vivo model where primary CLL cells from patient-derived blood were stimulated with 10% fetal bovine serum (FBS), 5 ng/mL recombinant human interleukin-4 (rh IL-4), 10 ng/mL recombinant human interleukin-10 (rh IL-10) and co-cultured with fibroblast expressing surface CD154 (CD40L). The percentage of cells staining with Annexin V and/or DRAQ-7 was measured by flow cytometry assay after 3, 6 or 10 days of incubation with vehicle control or with increasing concentrations of Compound 1 ranging from 0.001 to 1 μM. Peripheral blood mononuclear cells (PBMCs) from CLL patients (Table 5) containing 70%-95% of CD5^+CD19^+ tumor cells were cultured on a monolayer of CD154-expressing fibroblasts in 24-well plates at a density of patient cells of 0.8×10^6 cells/well in RPMI 1640 medium supplemented with 10% FBS, 5 ng/mL rh IL-4 and 10 ng/mL rh IL-10 and were treated with vehicle control (0.1% DMSO) or increasing concentrations of Compound 1 ranging from 0.001 to 1 μM. After treatment, flow cytometric analysis was used to determine the number of cells that were viable or apoptotic.\nAfter 3, 6 or 10 days of compound treatment, cells were incubated with Annexin V to capture the externalization of phosphatidylserine as a result of disturbed lipid asymmetry in the plasma membrane of cells, a well-characterized event in apoptosis, and the vital far-red fluorescent DNA dye DRAQ-7, that only stains the nuclei of dead and permeabilized cells, and analyzed by flow cytometry (Attune®, Thermo Fisher). Analysis was then performed to determine the percentage of viable live cells (Annexin V and DRAQ-7 double negative staining cells) using FlowJo_V10 and graphed with GraphPad Prism 7.03 software. The live cell count for every condition was normalized to the DMSO control (considered as 100% viable cells) to calculate the percentage of viable cells remaining after treatment. The IC50 (50% inhibitory concentration) and Emax (maximum efficacy eliminating tumor cells achieved) values were then calculated by performing nonlinear regression curve fitting using log(inhibitor) vs. normalized response—variable slope analysis on GraphPad Prism 7.03. Area under the curve (AUC) value of the viable cell counts over time was calculated by performing area under curve analysis on GraphPad Prism 7.03 (Table 6)."}, "[2]": {"tested_on": "CI CLL cell line", "experiment": "Cell proliferation and viability assay (384-well flow cytometry, Annexin V/DRAQ7), CI", "format": "cell-based", "settings": "120 hours", "description": "The following are examples of cell-based assays that can be used to determine the anti-proliferative activity and apoptotic effect of compounds described herein using exemplary CLL cell lines (Table 3). The in vitro growth inhibitory activity of Compound 1 described herein was evaluated using a 384-well flow cytometry assay.\nThe cell lines were plated under the conditions shown in Table 3 in 384-well flat bottom plates and incubated with increasing concentrations of compound ranging from 0.00015 to 10 μM or dimethyl sulfoxide (DMSO) control. The final concentration of DMSO was 0.1% (v/v). Following the addition of Compound 1 or DMSO and incubation for 120 hours, cell number and cell death were analyzed by flow cytometry (Attune®, Thermo Fisher) using Annexin V and the live-cell impermeant DNA dye, DRAQ7. […]\nFlow cytometry data analysis was then performed using the Flow Jo_v10 software to determine the number of viable cells (Annexin V and DRAQ7 double negative staining cells) and percentage of apoptotic cells (Annexin V positive cells) for each condition. […] The IC50 (50% inhibitory concentration) and Emax (maximum efficacy achieved) values were then calculated by performing nonlinear regression curve fitting using log (inhibitor) vs. normalized response—variable slope analysis on GraphPad Prism 7.03. […]"}, "[3]": {"settings": "Pt10, ex vivo CLL patient cells"}},
  "note": "Read-outs that look alike come from different tables or passages of the source.",
  "data": [
    {"molecule": "O=C1CC[C@H](N2C(=O)c3cccc(NCc4ccc(CN5CC(N6CCOCC6)C5)cc4F)c3C2=O)C(=O)N1", "note": "[Compound 1, (S)-2-(2,6-dioxopiperidin-3-yl)-4-((2-fluoro-4-((3-morpholinoazetidin-1-yl)methyl)benzyl)amino)isoindoline-1,3-dione]", "values": [
      {"measurement": "Emax", "setting": "[1]; Pt1, ex vivo CLL patient cells", "result": 4.62, "unit": "%"},
      {"measurement": "IC50", "setting": "[1]; Pt2, ex vivo CLL patient cells, 0.001 to 1 μM, viable cells normalized to DMSO, read-out: IC50", "result": 1050, "unit": "pM"},
      {"measurement": "Emax", "setting": "[1]; Pt2, ex vivo CLL patient cells", "result": 30.6, "unit": "%"},
      {"measurement": "IC50", "setting": "[1]; Pt3, ex vivo CLL patient cells, 0.001 to 1 μM, viable cells normalized to DMSO, read-out: IC50", "result": 723, "unit": "pM"},
      {"measurement": "Emax", "setting": "[1]; Pt3, ex vivo CLL patient cells", "result": 13, "unit": "%"},
      {"measurement": "Emax", "setting": "[1]; Pt4, ex vivo CLL patient cells", "result": 6.5, "unit": "%"},
      {"measurement": "IC50", "setting": "[1]; Pt5, ex vivo CLL patient cells, 0.001 to 1 μM, viable cells normalized to DMSO, read-out: IC50", "result": 305, "unit": "pM"},
      {"measurement": "Emax", "setting": "[1]; Pt5, ex vivo CLL patient cells", "result": 22.8, "unit": "%"},
      {"measurement": "IC50", "setting": "[1]; Pt6, ex vivo CLL patient cells, 0.001 to 1 μM, viable cells normalized to DMSO, read-out: IC50", "result": 2750, "unit": "pM"},
      {"measurement": "Emax", "setting": "[1]; Pt6, ex vivo CLL patient cells", "result": 27.4, "unit": "%"},
      {"measurement": "IC50", "setting": "[1]; Pt7, ex vivo CLL patient cells, 0.001 to 1 μM, viable cells normalized to DMSO, read-out: IC50", "result": 36, "unit": "pM"},
      {"measurement": "Emax", "setting": "[1]; Pt7, ex vivo CLL patient cells", "result": 5.87, "unit": "%"},
      {"measurement": "IC50", "setting": "[1]; Pt8, ex vivo CLL patient cells, 0.001 to 1 μM, viable cells normalized to DMSO, read-out: IC50", "result": 209, "unit": "pM"},
      {"measurement": "Emax", "setting": "[1]; Pt8, ex vivo CLL patient cells", "result": 4.82, "unit": "%"},
      {"measurement": "IC50", "setting": "[1]; Pt9, ex vivo CLL patient cells, 0.001 to 1 μM, viable cells normalized to DMSO, read-out: IC50", "result": 65.2, "unit": "pM"},
      {"measurement": "Emax", "setting": "[1]; Pt9, ex vivo CLL patient cells", "result": 4.14, "unit": "%"},
      {"measurement": "IC50", "setting": "[1]; Pt10, ex vivo CLL patient cells, 0.001 to 1 μM, viable cells normalized to DMSO, read-out: IC50", "result": 129, "unit": "pM"},
      {"measurement": "Emax", "setting": "[1]; [3]", "result": 10.2, "unit": "%"},
      {"measurement": "IC50", "setting": "[1]; all CLL patient samples evaluated, read-out: concentrations that led to 50% inhibition of growth (IC50)", "result": "100 to 3000", "unit": "pM"},
      {"measurement": "AUC", "setting": "[1]; Pt1, ex vivo CLL patient cells", "result": 32.79},
      {"measurement": "AUC", "setting": "[1]; Pt2, ex vivo CLL patient cells", "result": 181.6},
      {"measurement": "AUC", "setting": "[1]; Pt3, ex vivo CLL patient cells", "result": 106.1},
      {"measurement": "AUC", "setting": "[1]; Pt4, ex vivo CLL patient cells", "result": 44.01},
      {"measurement": "AUC", "setting": "[1]; Pt5, ex vivo CLL patient cells", "result": 139.6},
      {"measurement": "AUC", "setting": "[1]; Pt6, ex vivo CLL patient cells", "result": 154.9},
      {"measurement": "AUC", "setting": "[1]; Pt7, ex vivo CLL patient cells", "result": 44.86},
      {"measurement": "AUC", "setting": "[1]; Pt8, ex vivo CLL patient cells", "result": 75.03},
      {"measurement": "AUC", "setting": "[1]; Pt9, ex vivo CLL patient cells", "result": 48.14},
      {"measurement": "AUC", "setting": "[1]; [3]", "result": 57.87},
      {"measurement": "% Viable Cells Emax (percentage of tumor cells remaining)", "setting": "[2]", "result": 53.58, "unit": "%"}
    ]}
  ]
}
